Reference: patent US20040110821A1, “GAL3 receptor antagonists for the treatment of affective disorders” (priority 2002, published 2004)

Experiments:
[1] = molecular target: T1, human GAL2 receptor (Homo sapiens, UniProt O43603); test: Radioligand binding at cloned human GAL2 receptor; details: indolones, Table 4, read-out: Ki (nM) GalR 2
T1 construct: expressed in transfected cells
T1 sequence (O43603 1-387): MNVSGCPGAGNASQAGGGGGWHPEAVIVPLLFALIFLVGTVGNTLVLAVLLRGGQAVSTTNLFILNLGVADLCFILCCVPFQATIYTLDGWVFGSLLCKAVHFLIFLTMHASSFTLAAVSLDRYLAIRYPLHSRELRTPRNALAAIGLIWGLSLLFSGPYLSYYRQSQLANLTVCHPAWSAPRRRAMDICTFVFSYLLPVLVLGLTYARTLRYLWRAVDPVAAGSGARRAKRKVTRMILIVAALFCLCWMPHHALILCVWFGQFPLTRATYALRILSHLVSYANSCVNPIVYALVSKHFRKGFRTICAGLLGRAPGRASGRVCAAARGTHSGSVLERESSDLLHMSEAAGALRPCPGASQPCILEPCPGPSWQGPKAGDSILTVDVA
Method: The present invention provides for a method of determining the binding affinity of a GAL3 antagonist, wherein the GAL3 antagonist is dissolved in a “suitable solvent”. A “suitable solvent” means one which permits the measurement of binding affinity of the GAL3 antagonist to the human GAL3 receptor at concentrations less than 1 μM, preferably less than 100 nM. Examples of solvents include, but are not limited to, DMSO, ethanol, N,N-dimethylacetamide, or water. For indolones, the preferred solvent is 3% DMSO (final concentration in the assay). For pyrimidines, the preferred solvent is 1% ethanol/0.09% polypuronic acid F-127 (final concentration in the assay). For any other type of compounds, the preferred solvent is the solvent which permits the measurement of binding affinity of a GAL3 antagonist at the lowest concentration. Once a suitable solvent is ascertained for the binding assay of the human GAL3 receptor, the same solvent is used in assays to determine the binding affinity for instance, at the GAL1 receptor.
The binding properties of the pyrimidines of the present invention were evaluated at the cloned human galanin receptors, GAL1, GAL2, and GAL3, using protocols described herein.
The binding properties of the indolones of the present invention were evaluated at the cloned human galanin receptors, GAL1, GAL2, and GAL3, using protocols described herein.
LM(tk-) cells were stably transfected with the human GAL1 or GAL3 receptor. CHO cells were stably transfected with the human GAL2 receptor.
cDNAs for the human and rat GAL1, and human and rat GAL3 receptors were transfected with a G-418 resistant gene into the mouse fibroblast LM(tk-) cell line by a calcium phosphate transfection method (Cullen, 1967). Stably transfected cells were selected with G-418. Human and rat GAL2 receptors were similarly transfected into CHO cells.
Membranes were harvested from stably transfected LM(tk-) cells. Adherent cells were washed twice in ice-cold phosphate buffered saline (138 mM NaCl, 8.1 mM Na2HPO4, 2.5 mM KCl, 1.2 mM KH2PO4, 0.9 mM CaCl2, 0.5 mM MgCl2, pH 7.4) and lysed by sonication in ice-cold sonication buffer (20 mM Tris-HCl, 5 mM EDTA, pH 7.7). Large particles and debris were cleared by low speed centrifugation (200×g, 5 min, 4° C.). Membranes were collected from the supernatant fraction by centrifugation (32,000×g, 18 min, 4° C.), washed with ice-cold hypotonic buffer, and collected again by centrifugation (32,000×g, 18 min, 4° C.). The final membrane pellet was resuspended by sonication into a small volume of ice-cold binding buffer (−1 ml for every 5 plates: 10 mM NaCl, 20 mM HEPES, 0.22 mM KH2PO4, 1.26 mM CaCl2, 0.81 mM MgSO4, pH 7.4). Protein concentration was measured by the Bradford method (Bradford, 1976) using Bio-Rad Reagent, with bovine serum albumin as a standard. Membranes were held on ice for up to one hour and used fresh, or flash frozen and stored in liquid nitrogen. Membranes were prepared similarly from CHO cells.
Galanin Receptors: Binding assays were performed according to the following published methods: human GAL3 (PCT International Publication No. WO 98/15570), human GAL1 (PCT International Publication No. WO 95/2260) human GAL2 (PCT International Publication No. WO 97/26853).
(§1) Binding data were analyzed using nonlinear regression and statistical techniques available in the GraphPAD Prism package (San Diego, Calif.). Enzymatic assay data were derived from a standard curve of reference compound data.

[2] = molecular target: T2, human α1D adrenergic receptor (Homo sapiens, UniProt P25100); test: Binding at human α1D adrenergic receptor; details: read-out: hα1D Ki
T2 construct: expressed in transfected cells
Description: (§2) Other receptors: Cell membranes expressing human dopamine D1, D2, D4 and rat D3 receptors were purchased through BioSignal, Inc. (Montreal, Canada). Binding assays using the histamine H1 receptor; dopamine receptors; and α1A, α1B, and α2 adrenergic receptors may be carried out according to the procedures described in U.S. Pat. No. 5,780,485, the disclosure of which is hereby incorporated by reference in its entirety into this application. Binding assays using the dopamine D5 receptor may be carried out according to the procedures described in U.S. Pat. No. 5,882,855, the disclosure of which is hereby incorporated by reference in its entirety into this application. Binding assays for the human α1D adrenergic receptor may be carried out according to the procedures described in U.S. Pat. No. 6,156,518, the disclosure of which is hereby incorporated by reference in its entirety into this application.
as §1

[3] = molecular target: T3, human α2B adrenergic receptor (Homo sapiens, UniProt P18089); test: Binding at human α2B adrenergic receptor; details: read-out: hα2B Ki
T3 construct: expressed in transfected cells
Description: as §2, §1

[4] = molecular target: T4, human dopamine D2 receptor (Homo sapiens, UniProt P14416); test: Binding at human dopamine D2 receptor; details: read-out: hD2 Ki
T4 construct: purchased BioSignal, Inc. (Montreal, Canada)
Description: as §2, §1

[5] = molecular target: T5, human 5HT1B receptor (Homo sapiens, UniProt P28222); test: Radioligand binding at human 5HT1B receptor; details: read-out: h5HT1B Ki
T5 construct: expressed in transfected cells
Method: (§3) Human 5HT1B, 5HT1D, 5HT1E, 5HT1F, and 5HT7 ReceDtors: The cell lysates of LM(tk-) clonal cell line stably transfected with the genes encoding each of these 5HT receptor-subtypes were prepared as described above. Cell membranes were suspended in 50 mM Tris-HCl buffer (pH 7.4 at 37° C.) containing 10 mM MgCl2, 0.2 mM EDTA, 10 µM pargyline, and 0.1% ascorbate. […] Nonspecific binding was determined in the presence of 10 μM serotonin. The bound radioligand was separated by filtration through GF/B filters using a cell harvester.
as §1

[6] = molecular target: T6, human dopamine D4 receptor (Homo sapiens, UniProt P21917); test: Binding at human dopamine D4 receptor; details: read-out: hD4 Ki
T6 construct: purchased BioSignal, Inc. (Montreal, Canada)
Description: as §2, §1

[7] = molecular target: T7, human α1B adrenergic receptor (Homo sapiens, UniProt P35368); test: Binding at human α1B adrenergic receptor; details: read-out: hα1B Ki
T7 construct: expressed in transfected cells
Description: as §2, §1

[8] = molecular target: T8, human 5HT1F receptor (Homo sapiens, UniProt P30939); test: Radioligand binding at human 5HT1F receptor; details: read-out: h5HT1F Ki
T8 construct: expressed in transfected cells
Method: as §3, §1

T7 sequence (P35368 whole entry): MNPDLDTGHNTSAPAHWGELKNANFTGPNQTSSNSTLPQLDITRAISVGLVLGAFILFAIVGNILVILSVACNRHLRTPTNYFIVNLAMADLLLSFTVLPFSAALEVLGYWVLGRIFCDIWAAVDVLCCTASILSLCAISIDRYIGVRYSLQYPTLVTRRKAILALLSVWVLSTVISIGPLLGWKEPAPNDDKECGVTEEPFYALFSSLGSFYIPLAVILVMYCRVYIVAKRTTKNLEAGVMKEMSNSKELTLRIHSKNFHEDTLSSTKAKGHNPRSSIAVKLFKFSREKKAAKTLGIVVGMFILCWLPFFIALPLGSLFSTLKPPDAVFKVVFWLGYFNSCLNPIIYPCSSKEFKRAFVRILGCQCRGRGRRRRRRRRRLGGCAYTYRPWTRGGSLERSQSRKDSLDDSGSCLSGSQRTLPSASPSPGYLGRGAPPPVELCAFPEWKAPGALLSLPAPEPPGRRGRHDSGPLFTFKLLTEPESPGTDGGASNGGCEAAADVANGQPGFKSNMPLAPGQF
T3 sequence (P18089 whole entry): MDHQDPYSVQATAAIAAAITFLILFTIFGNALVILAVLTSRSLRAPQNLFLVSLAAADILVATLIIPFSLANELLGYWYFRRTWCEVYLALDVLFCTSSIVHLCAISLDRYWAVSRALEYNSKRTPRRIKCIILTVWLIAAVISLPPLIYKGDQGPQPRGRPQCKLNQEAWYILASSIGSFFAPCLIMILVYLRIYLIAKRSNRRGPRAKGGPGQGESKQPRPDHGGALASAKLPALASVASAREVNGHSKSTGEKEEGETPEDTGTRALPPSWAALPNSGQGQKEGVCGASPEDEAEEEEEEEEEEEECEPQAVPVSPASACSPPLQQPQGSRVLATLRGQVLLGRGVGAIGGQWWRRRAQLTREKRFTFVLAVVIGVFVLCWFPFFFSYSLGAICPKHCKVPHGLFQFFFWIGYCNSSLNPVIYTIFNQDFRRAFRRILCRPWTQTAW
T2 sequence (P25100 whole entry): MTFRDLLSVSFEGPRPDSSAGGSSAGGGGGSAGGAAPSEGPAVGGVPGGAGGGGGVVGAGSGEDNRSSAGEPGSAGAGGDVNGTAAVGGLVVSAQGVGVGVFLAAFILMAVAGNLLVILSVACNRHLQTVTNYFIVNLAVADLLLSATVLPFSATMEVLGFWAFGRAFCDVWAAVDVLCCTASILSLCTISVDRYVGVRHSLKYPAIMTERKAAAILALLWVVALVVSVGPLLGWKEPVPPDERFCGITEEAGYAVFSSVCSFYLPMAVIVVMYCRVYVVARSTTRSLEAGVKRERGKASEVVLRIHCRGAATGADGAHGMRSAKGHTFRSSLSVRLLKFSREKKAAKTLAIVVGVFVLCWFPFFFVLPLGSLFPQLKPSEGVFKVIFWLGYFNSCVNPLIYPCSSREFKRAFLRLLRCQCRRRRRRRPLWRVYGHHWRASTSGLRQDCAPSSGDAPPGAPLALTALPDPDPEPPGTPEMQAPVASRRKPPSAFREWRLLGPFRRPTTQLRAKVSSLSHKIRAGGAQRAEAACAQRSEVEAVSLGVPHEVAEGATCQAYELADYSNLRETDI
T5 sequence (P28222 whole entry): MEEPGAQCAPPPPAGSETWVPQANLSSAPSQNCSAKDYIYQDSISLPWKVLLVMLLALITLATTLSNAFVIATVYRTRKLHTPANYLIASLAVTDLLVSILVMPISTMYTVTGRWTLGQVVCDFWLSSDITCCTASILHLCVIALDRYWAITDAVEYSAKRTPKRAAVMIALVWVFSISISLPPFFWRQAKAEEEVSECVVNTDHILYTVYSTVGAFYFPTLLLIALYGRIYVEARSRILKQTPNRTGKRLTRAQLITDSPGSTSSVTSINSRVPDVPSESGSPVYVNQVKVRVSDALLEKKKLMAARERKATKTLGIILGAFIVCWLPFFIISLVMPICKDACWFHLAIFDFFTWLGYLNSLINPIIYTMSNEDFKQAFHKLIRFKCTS
T6 sequence (P21917 whole entry): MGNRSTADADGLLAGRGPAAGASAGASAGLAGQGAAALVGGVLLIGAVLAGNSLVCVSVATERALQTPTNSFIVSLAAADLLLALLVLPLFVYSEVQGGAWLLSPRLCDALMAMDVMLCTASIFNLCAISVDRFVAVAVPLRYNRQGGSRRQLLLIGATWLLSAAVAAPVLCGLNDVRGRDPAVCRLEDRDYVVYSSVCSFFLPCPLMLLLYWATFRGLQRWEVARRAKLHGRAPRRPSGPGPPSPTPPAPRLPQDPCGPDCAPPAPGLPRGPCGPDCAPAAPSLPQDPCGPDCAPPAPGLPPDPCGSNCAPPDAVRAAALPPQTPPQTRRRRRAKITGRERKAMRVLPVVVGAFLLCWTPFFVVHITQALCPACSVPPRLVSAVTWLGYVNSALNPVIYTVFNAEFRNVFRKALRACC
T8 sequence (P30939 whole entry): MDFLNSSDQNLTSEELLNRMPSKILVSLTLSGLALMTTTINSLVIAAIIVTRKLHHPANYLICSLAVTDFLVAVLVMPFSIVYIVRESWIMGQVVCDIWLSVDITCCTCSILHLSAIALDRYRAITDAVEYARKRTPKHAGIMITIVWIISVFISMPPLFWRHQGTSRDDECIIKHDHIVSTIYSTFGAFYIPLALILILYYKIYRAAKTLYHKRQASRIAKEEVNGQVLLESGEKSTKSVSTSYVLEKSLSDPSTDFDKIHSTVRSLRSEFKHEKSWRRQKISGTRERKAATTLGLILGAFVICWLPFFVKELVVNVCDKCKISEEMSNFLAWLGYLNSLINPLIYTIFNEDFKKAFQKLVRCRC
T4 sequence (P14416 whole entry): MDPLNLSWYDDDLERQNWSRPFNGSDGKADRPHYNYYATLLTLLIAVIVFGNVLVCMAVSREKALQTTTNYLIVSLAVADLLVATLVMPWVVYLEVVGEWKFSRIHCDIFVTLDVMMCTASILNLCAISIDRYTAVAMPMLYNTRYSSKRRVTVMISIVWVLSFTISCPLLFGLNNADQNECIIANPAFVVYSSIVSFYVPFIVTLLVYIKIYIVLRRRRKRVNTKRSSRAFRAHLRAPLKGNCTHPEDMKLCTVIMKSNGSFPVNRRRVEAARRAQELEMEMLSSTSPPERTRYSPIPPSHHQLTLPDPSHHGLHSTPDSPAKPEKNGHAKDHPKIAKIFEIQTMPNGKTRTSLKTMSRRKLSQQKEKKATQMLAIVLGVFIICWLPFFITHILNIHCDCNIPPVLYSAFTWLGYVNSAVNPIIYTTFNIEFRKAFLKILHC

O=C1C(=Nc2cccc(C(F)(F)F)c2)c2ccccc2N1c1ccccc1 [Example 92, 1-PHENYL-3-[[3-(TRIFLUOROMETHYL)PHENYL]IMINO]-1,3-DIHYDRO-2H-INDOL-2-ONE]
Ki [1]: > 10000 nM | Ki [2]: 17.2 µM | Ki [3]: > 50 µM | Ki [4]: 41.4 µM | Ki [5]: 11.3 µM | Ki [6]: 41.4 µM | Ki [7]: > 50 µM | Ki [8]: 5.29 µM
